Data from ChEMBL document CHEMBL3727370, “HM74 receptor agonists:xanthine derivatives, corresponding pharmaceutical compositions, treatment methods and processes” (2013).

Target: Hydroxycarboxylic acid receptor 2 (Homo sapiens, UniProt Q8TDS4)
Assay: Agonist activity at human HM74A transfected in CHO-K1 cells for 4 hrs by [35S]-GTPgammaS binding assay
Assay type: functional, cell-based

Sequence of Hydroxycarboxylic acid receptor 2 (Q8TDS4 whole entry): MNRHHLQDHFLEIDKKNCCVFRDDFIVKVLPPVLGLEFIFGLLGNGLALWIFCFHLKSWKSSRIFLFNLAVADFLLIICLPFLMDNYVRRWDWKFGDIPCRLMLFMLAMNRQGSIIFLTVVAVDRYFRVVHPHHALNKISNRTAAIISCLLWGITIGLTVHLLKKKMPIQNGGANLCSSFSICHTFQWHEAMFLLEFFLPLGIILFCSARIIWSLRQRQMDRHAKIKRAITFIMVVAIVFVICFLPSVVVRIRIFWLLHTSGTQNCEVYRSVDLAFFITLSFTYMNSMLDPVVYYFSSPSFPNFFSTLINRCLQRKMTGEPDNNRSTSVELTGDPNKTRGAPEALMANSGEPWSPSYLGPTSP

| SMILES | EC50 [µM] | Efficacy [%] |
| --- | --- | --- |
| O=c1[nH]c(=O)n(CCCC2CC2)c2nc(Cl)[nH]c12 | < 12.6 | > 30 |
| CCCn1c(=O)[nH]c(=O)c2[nH]c(Cl)nc21 | < 12.6 | > 30 |
| O=c1[nH]c(=O)n(CC2CCC2)c2nc(Cl)[nH]c12 | < 12.6 | > 30 |
| O=c1[nH]c(=O)n(CCC2CCC2)c2nc(Cl)[nH]c12 | < 12.6 | > 30 |
| O=c1[nH]c(=O)n(CCCCCCF)c2nc(Cl)[nH]c12 | < 12.6 | > 30 |
| CCCCCn1c(=O)n(C)c(=O)c2[nH]c(Cl)nc21 | < 12.6 | > 30 |
| O=c1[nH]c(=O)n(CCCF)c2nc(Cl)[nH]c12 | < 12.6 | > 30 |
| CCCCCn1c(=O)[nH]c(=O)c2[nH]c(Cl)nc21 | < 12.6 | > 30 |
| CCCCCCn1c(=O)n(C)c(=O)c2[nH]c(Cl)nc21 | < 12.6 | > 30 |
| CCCCCCn1c(=O)[nH]c(=O)c2[nH]c(Cl)nc21 | < 12.6 | > 30 |
| O=c1c2[nH]c(Cl)nc2n(CCCC(F)(F)F)c(=O)n1CCCC(F)(F)F | < 12.6 | > 30 |
| CC(C)CCCCCn1c(=O)[nH]c(=O)c2[nH]c(Cl)nc21 | < 12.6 | > 30 |
| CCCCn1c(=O)n(C)c(=O)c2[nH]c(Cl)nc21 |  | > 30 |
| CC(C)CCn1c(=O)[nH]c(=O)c2[nH]c(Cl)nc21 | < 12.6 | > 30 |
| CCCn1c(=O)c2[nH]c(Cl)nc2n(CC(F)(F)F)c1=O | < 12.6 | > 30 |
| CCC(C)CCn1c(=O)[nH]c(=O)c2[nH]c(Cl)nc21 (racemic) | < 12.6 | > 30 |
| CCCn1c(=O)n(C)c(=O)c2[nH]c(Cl)nc21 | < 12.6 | > 30 |
| CCCCCCCCn1c(=O)[nH]c(=O)c2[nH]c(Cl)nc21 | < 12.6 | > 30 |
| CC(C)(C#N)CCCCn1c(=O)[nH]c(=O)c2[nH]c(Cl)nc21 | < 12.6 | > 30 |
| O=c1[nH]c(=O)n(CCC2CCCCC2)c2nc(Cl)[nH]c12 | < 12.6 | > 30 |
| C=CCCCn1c(=O)[nH]c(=O)c2[nH]c(Cl)nc21 | < 12.6 | > 30 |
| CCC(C)Cn1c(=O)[nH]c(=O)c2[nH]c(Cl)nc21 (racemic) | < 12.6 | > 30 |
| CCCn1c(=O)n(CC#N)c(=O)c2[nH]c(Cl)nc21 | < 12.6 | > 30 |
| CCCCn1c(=O)n(CC#N)c(=O)c2[nH]c(Cl)nc21 | < 12.6 | > 30 |
| CC(C)CCCn1c(=O)[nH]c(=O)c2[nH]c(Cl)nc21 | < 12.6 | > 30 |
| O=c1[nH]c(=O)n(CC2CCCCC2)c2nc(Cl)[nH]c12 | < 12.6 | > 30 |
| O=c1[nH]c(=O)n(CC(F)(F)F)c2nc(Cl)[nH]c12 | < 12.6 | > 30 |

| SMILES | EC50 [µM] | Efficacy [%] |
| --- | --- | --- |
| O=c1[nH]c(=O)n(CCCCCF)c2nc(Cl)[nH]c12 | < 12.6 | > 30 |
| CCn1c(=O)n(C)c(=O)c2[nH]c(Cl)nc21 | < 12.6 | > 30 |
| O=c1[nH]c(=O)n(CCC(F)(F)F)c2nc(Cl)[nH]c12 | < 12.6 | > 30 |
| CCCCCCCCCCn1c(=O)[nH]c(=O)c2[nH]c(Cl)nc21 | < 12.6 | > 30 |
| O=c1[nH]c(=O)n(CCCC(F)(F)F)c2nc(Cl)[nH]c12 | < 12.6 | > 30 |
| N#CCn1c(=O)[nH]c(=O)c2[nH]c(Cl)nc21 | < 12.6 | > 30 |
| N#CCn1c(=O)c2[nH]c(Cl)nc2n(CC#N)c1=O | < 12.6 | > 30 |
| Cn1c(=O)c2[nH]c(Cl)nc2n(CCCC#N)c1=O | < 12.6 | > 30 |
| O=c1[nH]c(=O)n(CC2CC2)c2nc(Cl)[nH]c12 | < 12.6 | > 30 |
| CCCCCn1c(=O)n(C)c(=O)c2[nH]c(Br)nc21 | < 12.6 | > 30 |
| Cn1c(=O)c2[nH]c(Cl)nc2n(CCCC(F)(F)F)c1=O | < 12.6 | > 30 |
| CCCCn1c(=O)c2[nH]c(C#N)nc2n(CCCC)c1=O | < 12.6 | > 30 |
| CCCCn1c(=O)c2[nH]c(I)nc2n(CCCC)c1=O | < 12.6 | > 30 |
| O=c1[nH]c(=O)n(CCCCF)c2nc(Cl)[nH]c12 | < 12.6 | > 30 |
| CCCCn1c(=O)n(CC)c(=O)c2[nH]c(Cl)nc21 | < 12.6 | > 30 |
| CCCCn1c(=O)n(C)c(=O)c2[nH]c(C#N)nc21 | < 12.6 | > 30 |
| O=c1[nH]c(=O)n(CCC2CCCC2)c2nc(Cl)[nH]c12 | < 12.6 | > 30 |
| O=c1[nH]c(=O)n(CC2CCCC2)c2nc(Cl)[nH]c12 | < 12.6 | > 30 |
| CCn1c(=O)c2[nH]c(Cl)nc2n(CC(F)(F)F)c1=O | < 12.6 | > 30 |
| CCCCn1c(=O)[nH]c(=O)c2[nH]c(Cl)nc21 | < 12.6 | > 30 |
| C=CCCn1c(=O)[nH]c(=O)c2[nH]c(Cl)nc21 | < 12.6 | > 30 |
| O=c1c2[nH]c(Cl)nc2n(CC(F)(F)F)c(=O)n1CCCC(F)(F)F | < 12.6 | > 30 |
| N#CCn1c(=O)c2[nH]c(Cl)nc2n(CCC2CC2)c1=O | < 12.6 | > 30 |
| N#CCCCn1c(=O)[nH]c(=O)c2[nH]c(Cl)nc21 | < 12.6 | > 30 |
| CCCCCn1c(=O)n(C)c(=O)c2[nH]c(C#N)nc21 | < 12.6 | > 30 |
| O=c1[nH]c(=O)n(CCC2CC2)c2nc(Cl)[nH]c12 | < 12.6 | > 30 |
| CCCC(C)Cn1c(=O)[nH]c(=O)c2[nH]c(Cl)nc21 (racemic) | < 12.6 | > 30 |
